# Source: patent US20210275556A1, “Cannabidiol Combination Compositions” (Companion Sciences. LLC, priority 2018, published 2021)
# Tests used:
# [1] = Gln and CBD concentration in the synovial fluid 8 hours after oral administration; settings: 8 h after oral administration of 15 mg/Kg CBD + 500 mg/Kg Gln
# Procedure: (§1) Three different water-soluble CBD oral formulae were tested, F #01 (20%), L #02 (2.5% CBD) and I #03 (20% CBD), and administered at 15 mg/Kg rat.
# (§2) The three formulae were tested in combination with 500 mg/Kg Glucosamine (Gln).
# (§3) The total administered volume was 10 mL/Kg (CBD+Gln).
# (§4) The trial was performed on Sprague Dawley male rat (n=3/group).
# (§5) A single dose containing CBD and Gln was provided PO at t=0.
# Gln concentration in the synovial fluid was examined 8 hours after oral administration.
# in vivo = settings: male, Sprague Dawley, rat
# Procedure: as §1, §2, §3, §4, §5
# CBD and Gln plasma concentrations were examined 1, 4 and 8 hours following a single administration.
Compound,CBD in the synovial fluid [1],decrease of Gln plasma concentration from the 4 h point (in vivo) [%],"concentration at 1 h (in vivo; po, 500 mg/kg) [ng/mL]","concentration at 4 h (in vivo; po, 500 mg/kg) [ng/mL]","concentration at 8 h (in vivo; po, 500 mg/kg) [ng/mL]"
"C=C(C)[C@@H]1CCC(C)=C[C@H]1c1c(O)cc(CCCCC)cc1O [CBD, Cannabidiol]",No CBD was detected,–,–,–,–
"N[C@H]1C(O)O[C@H](CO)[C@@H](O)[C@@H]1O (some centres unmarked) [Gln, Glucosamine]",–,94.0,2.04,134,8
